How the values were obtained:
[1] = biological target: T1, Human neuropeptide Y (NPY-Y1) (Homo sapiens, UniProt P25929); experiment: Radioligand binding, human neuropeptide Y NPY-Y1 membranes, FlashPlate, [125I]-PYY; settings: compound at 10 μM
T1 construct: purchased Perkin Elmer Biosignal
T1 sequence (P25929 1-384): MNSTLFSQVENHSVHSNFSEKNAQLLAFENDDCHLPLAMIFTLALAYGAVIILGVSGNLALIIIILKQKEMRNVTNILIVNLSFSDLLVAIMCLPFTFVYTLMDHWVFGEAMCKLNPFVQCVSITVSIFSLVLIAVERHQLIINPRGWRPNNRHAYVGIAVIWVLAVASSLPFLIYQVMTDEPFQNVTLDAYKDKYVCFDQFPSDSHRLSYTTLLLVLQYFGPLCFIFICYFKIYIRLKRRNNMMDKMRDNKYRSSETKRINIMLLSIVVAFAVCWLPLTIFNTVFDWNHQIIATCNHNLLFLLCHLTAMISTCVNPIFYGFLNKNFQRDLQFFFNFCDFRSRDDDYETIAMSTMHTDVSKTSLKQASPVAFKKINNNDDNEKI
Outline: (§1)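 Cloned human receptor membranes were coated onto FlashPlate wells and incubated with radioligand and compound (added from a 0.5 mM DMSO daughter plate) for 1 hour at room temperature in the dark. Scintillation counting gave percent inhibition, with DMSO defining total and reference ligand defining non-specific binding.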

Human κ-Opioid (KOP) = biological target: T2, Human κ-Opioid (KOP) (Homo sapiens, UniProt P41145); experiment: Radioligand binding, human κ-opioid (KOP) membranes, filtration, [3H]-Diprenorphine; settings: compound at 10 μM; for A2 radioligand binding inhibition: human κ-opioid (KOP) membranes
T2 construct: purchased Perkin Elmer Biosignal
Outline: (§2)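 Filtration binding on cloned human receptor membranes (1 Unit/well), [125I]-Substance P for NK1 and [3H]-Diprenorphine for KOP, 1 h at room temperature. Filters PEI-presoaked, washed with cold 50 mM Tris-HCl pH 7.4, counted by scintillation; percent inhibition calculated, reference ligand defining non-specific binding.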

Human opioid (ORL1) = biological target: T3, Human opioid (ORL1) (Homo sapiens, UniProt P41146); experiment: Radioligand binding, human opioid ORL1 membranes, FlashPlate, [125I]-Nociceptin; settings: compound at 10 μM
T3 construct: purchased Perkin Elmer Biosignal
Outline: as §1

Human neurokinin (NK1) = biological target: T4, Human neurokinin (NK1) (Homo sapiens, UniProt P25103); experiment: Radioligand binding, human neurokinin NK1 membranes, filtration, [125I]-Substance P; settings: compound at 10 μM; for A8 radioligand binding inhibition: human neurokinin NK1 membranes
T4 construct: purchased Perkin Elmer Biosignal
Outline: as §2

Mouse urotensin (mUR2) = biological target: T5, Mouse urotensin (mUR2) (Mus musculus, UniProt Q8VIH9); experiment: Radioligand binding, mouse urotensin mUR2 membranes, FlashPlate, [125I]-Urotensin II; settings: compound at 10 μM; for A11 radioligand binding inhibition: mouse urotensin mUR2 membranes
T5 construct: purchased Perkin Elmer Biosignal
T5 sequence (Q8VIH9 1-385): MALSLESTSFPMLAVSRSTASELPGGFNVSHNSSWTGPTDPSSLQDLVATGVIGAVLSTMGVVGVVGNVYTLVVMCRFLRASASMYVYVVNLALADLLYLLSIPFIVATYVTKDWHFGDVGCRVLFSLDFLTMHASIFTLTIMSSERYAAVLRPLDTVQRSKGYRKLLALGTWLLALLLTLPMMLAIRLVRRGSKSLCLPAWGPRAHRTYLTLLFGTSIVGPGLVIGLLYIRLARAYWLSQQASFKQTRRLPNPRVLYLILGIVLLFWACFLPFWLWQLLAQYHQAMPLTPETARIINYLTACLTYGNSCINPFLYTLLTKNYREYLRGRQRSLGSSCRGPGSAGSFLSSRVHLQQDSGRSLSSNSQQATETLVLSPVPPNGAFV
Outline: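 Cloned mouse urotensin (mUR2) receptor membranes from Perkin Elmer Biosignal were immobilized in FlashPlate microplates using a proprietary coating. Each well got 19.5 μl buffer, then 0.5 μl of DMSO, reference ligand, or compound. Adding 5 μl of [125I]-Urotensin II, diluted to 5× final concentration in binding buffer, started binding. Plates were sealed with TopSeal-A and incubated 1 hour at room temperature in the dark. Wells were counted for 30 seconds each on a TopCount after a 60-second delay, and percentage inhibition was calculated.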

Human Melanocortin (MC3) = biological target: T6, Human Melanocortin (MC3) (Homo sapiens, UniProt P41968); experiment: Radioligand binding, human melanocortin MC3 membranes, FlashPlate, [125I]-NDP-αMSH; settings: compound at 10 μM; for A3 radioligand binding inhibition: human melanocortin MC3 membranes
T6 construct: purchased Perkin Elmer Biosignal
Outline: as §1

[2] = biological target: T7, Human melanin-concentrating hormone (MCH1) (Homo sapiens, UniProt Q99705); experiment: Radioligand binding, human melanin-concentrating hormone MCH1 membranes, FlashPlate, [125I]-S36057; settings: compound at 10 μM; for A6 radioligand binding inhibition: human MCH1 membranes
T7 construct: purchased Perkin Elmer Biosignal
Outline: as §1

Human μ-opioid (MOP) = biological target: T8, Human μ-opioid (MOP) (Homo sapiens, UniProt P35372); experiment: Radioligand binding, human μ-opioid (MOP) membranes, FlashPlate, [3H]-Naloxone; settings: compound at 10 μM; for A7 radioligand binding inhibition: human μ-opioid (MOP) membranes
T8 construct: purchased Perkin Elmer Biosignal
Outline: as §1

Human melanocortin (MC5) = biological target: T9, Human melanocortin (MC5) (Homo sapiens, UniProt P33032); experiment: Radioligand binding, human melanocortin MC5 membranes, FlashPlate, [125I]-NDP-αMSH; settings: compound at 10 μM; for A5 radioligand binding inhibition: human melanocortin MC5 membranes
T9 construct: purchased Perkin Elmer Biosignal
Outline: as §1

Human Melanocortin (MC4) = biological target: T10, Human Melanocortin (MC4) (Homo sapiens, UniProt P32245); experiment: Radioligand binding, human melanocortin MC4 membranes, FlashPlate, [125I]-NDP-αMSH; settings: compound at 10 μM; for A4 radioligand binding inhibition: human melanocortin MC4 membranes
T10 construct: purchased Perkin Elmer Biosignal
Outline: as §1

Human δ-opioid (DOP) = biological target: T11, Human δ-opioid (DOP) (Homo sapiens, UniProt P41143); experiment: Radioligand binding, human δ-opioid (DOP) membranes, FlashPlate, [3H]-Bremazocine; settings: compound at 10 μM; for A1 radioligand binding inhibition: human δ-opioid (DOP) membranes
T11 construct: purchased Perkin Elmer Biosignal
Outline: as §1

T7 sequence (Q99705 whole entry): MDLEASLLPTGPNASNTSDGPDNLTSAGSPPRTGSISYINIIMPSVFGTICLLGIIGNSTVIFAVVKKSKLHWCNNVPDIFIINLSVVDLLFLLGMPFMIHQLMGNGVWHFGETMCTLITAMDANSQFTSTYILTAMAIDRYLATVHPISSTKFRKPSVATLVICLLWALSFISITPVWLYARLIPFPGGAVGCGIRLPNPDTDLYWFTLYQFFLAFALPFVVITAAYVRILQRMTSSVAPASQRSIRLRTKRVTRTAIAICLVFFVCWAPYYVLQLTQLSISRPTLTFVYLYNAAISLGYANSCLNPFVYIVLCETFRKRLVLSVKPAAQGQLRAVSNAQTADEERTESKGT
T3 sequence (P41146 whole entry): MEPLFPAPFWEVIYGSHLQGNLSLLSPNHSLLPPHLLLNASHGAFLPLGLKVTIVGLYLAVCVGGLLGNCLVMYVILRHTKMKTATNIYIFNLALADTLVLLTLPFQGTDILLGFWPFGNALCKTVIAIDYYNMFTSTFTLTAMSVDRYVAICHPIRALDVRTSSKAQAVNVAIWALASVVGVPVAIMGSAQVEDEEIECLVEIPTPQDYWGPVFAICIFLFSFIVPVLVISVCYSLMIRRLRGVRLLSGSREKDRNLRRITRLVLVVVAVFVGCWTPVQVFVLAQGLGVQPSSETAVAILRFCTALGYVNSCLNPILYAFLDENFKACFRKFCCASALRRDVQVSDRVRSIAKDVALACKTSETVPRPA
T8 sequence (P35372 whole entry): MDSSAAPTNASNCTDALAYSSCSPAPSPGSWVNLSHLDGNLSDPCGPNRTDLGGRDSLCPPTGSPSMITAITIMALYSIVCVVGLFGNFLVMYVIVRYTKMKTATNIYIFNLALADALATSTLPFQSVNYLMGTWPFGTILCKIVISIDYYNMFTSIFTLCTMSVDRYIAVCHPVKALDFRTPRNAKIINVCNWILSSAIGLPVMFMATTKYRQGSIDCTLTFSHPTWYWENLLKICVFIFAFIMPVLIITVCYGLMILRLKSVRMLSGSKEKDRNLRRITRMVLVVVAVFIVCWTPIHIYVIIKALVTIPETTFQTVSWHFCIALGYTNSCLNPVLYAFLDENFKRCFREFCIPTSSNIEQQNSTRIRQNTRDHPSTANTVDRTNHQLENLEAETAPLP
T2 sequence (P41145 whole entry): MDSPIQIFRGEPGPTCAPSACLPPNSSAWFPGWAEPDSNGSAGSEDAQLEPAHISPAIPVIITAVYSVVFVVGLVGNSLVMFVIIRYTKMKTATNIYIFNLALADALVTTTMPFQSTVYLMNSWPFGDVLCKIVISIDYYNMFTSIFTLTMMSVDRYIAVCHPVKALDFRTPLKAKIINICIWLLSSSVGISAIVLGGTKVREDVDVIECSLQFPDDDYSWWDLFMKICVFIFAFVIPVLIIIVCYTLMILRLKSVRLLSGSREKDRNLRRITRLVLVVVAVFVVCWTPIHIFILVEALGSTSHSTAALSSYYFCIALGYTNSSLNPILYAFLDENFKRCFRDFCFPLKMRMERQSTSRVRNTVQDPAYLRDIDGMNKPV
T9 sequence (P33032 whole entry): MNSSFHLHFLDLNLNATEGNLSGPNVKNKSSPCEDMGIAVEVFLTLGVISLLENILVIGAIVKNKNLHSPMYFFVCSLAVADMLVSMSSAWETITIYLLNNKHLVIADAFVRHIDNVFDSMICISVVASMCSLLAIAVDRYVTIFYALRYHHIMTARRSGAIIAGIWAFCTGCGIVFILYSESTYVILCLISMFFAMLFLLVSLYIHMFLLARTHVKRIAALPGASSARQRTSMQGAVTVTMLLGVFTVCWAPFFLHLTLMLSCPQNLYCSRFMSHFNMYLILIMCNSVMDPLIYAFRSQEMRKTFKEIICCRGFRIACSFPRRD
T6 sequence (P41968 whole entry): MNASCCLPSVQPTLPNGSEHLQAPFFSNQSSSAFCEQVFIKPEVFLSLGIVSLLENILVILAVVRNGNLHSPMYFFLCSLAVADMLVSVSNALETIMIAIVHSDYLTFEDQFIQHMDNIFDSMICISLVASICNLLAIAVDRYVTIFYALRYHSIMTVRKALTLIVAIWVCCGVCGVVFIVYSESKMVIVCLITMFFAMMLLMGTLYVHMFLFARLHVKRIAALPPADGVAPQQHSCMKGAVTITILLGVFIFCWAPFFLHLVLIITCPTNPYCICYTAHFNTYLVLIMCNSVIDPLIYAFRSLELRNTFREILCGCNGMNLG
T10 sequence (P32245 whole entry): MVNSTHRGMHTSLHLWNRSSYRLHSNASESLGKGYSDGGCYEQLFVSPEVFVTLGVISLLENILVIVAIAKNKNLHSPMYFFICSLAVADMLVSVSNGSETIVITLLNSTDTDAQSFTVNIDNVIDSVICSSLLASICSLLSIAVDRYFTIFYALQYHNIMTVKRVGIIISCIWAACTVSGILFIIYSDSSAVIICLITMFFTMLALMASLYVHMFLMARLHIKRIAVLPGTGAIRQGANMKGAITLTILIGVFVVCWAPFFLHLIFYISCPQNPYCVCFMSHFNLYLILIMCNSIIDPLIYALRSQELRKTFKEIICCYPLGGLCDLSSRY
T11 sequence (P41143 whole entry): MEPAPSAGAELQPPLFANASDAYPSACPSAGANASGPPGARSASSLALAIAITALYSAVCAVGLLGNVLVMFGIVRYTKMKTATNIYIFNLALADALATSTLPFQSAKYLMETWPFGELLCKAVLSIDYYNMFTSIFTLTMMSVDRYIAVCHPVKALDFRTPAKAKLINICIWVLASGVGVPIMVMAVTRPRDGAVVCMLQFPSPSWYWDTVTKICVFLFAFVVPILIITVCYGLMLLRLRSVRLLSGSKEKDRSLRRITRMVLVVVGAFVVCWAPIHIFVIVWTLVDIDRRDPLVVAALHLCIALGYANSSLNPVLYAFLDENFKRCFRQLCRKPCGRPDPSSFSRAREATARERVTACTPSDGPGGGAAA
T4 sequence (P25103 whole entry): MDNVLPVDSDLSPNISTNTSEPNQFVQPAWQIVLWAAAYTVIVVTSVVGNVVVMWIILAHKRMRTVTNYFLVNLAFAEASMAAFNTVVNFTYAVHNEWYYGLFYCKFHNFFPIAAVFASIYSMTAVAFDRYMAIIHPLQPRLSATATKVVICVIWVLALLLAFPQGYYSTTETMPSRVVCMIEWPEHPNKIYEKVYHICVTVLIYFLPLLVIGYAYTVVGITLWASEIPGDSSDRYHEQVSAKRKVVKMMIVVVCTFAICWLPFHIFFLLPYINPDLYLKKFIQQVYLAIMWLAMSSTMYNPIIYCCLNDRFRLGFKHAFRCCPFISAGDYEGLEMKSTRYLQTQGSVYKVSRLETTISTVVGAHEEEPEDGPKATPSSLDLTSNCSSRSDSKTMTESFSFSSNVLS

CO[C@H]1[C@H](O)[C@@H](COCc2ccccc2)OC(OCc2ccc(-c3ccccc3)cc2)[C@@H]1NC(=O)CCNC(=N)N (stereo partly shown) [compound 59]
A9 radioligand binding inhibition ([1]; human NPY-Y1 membranes): − (“−” indicates less than 50% inhibition at 10 μM) | A2 radioligand binding inhibition (Human κ-Opioid (KOP)): + (“+” indicates greater than 50% inhibition at 10 μM) | A10 radioligand binding inhibition (Human opioid (ORL1); human ORL1 membranes): − (“−” indicates less than 50% inhibition at 10 μM) | A8 radioligand binding inhibition (Human neurokinin (NK1)): + (“+” indicates greater than 50% inhibition at 10 μM) | A11 radioligand binding inhibition (Mouse urotensin (mUR2)): − (“−” indicates less than 50% inhibition at 10 μM) | A3 radioligand binding inhibition (Human Melanocortin (MC3)): − (“−” indicates less than 50% inhibition at 10 μM) | A6 radioligand binding inhibition [2]: − (“−” indicates less than 50% inhibition at 10 μM) | A7 radioligand binding inhibition (Human μ-opioid (MOP)): + (“+” indicates greater than 50% inhibition at 10 μM) | A5 radioligand binding inhibition (Human melanocortin (MC5)): + (“+” indicates greater than 50% inhibition at 10 μM) | A4 radioligand binding inhibition (Human Melanocortin (MC4)): − (“−” indicates less than 50% inhibition at 10 μM) | A1 radioligand binding inhibition (Human δ-opioid (DOP)): − (“−” indicates less than 50% inhibition at 10 μM)

CSC1OC(COCc2ccc3ccccc3c2)C(O)C(OCc2ccc3ccccc3c2)C1NC(=O)CNC(=N)N (stereo not shown) [compound 317]
A9: inhibition of radioligand binding, human neuropeptide Y (NPY-Y1) ([1]; [125I]-PYY): − (“−” indicates less than 50% inhibition at 10 μM) | A2: inhibition of radioligand binding, human κ-opioid (KOP) (Human κ-Opioid (KOP); [3H]-Diprenorphine): − (“−” indicates less than 50% inhibition at 10 μM) | A10: inhibition of radioligand binding, human opioid (ORL1) (Human opioid (ORL1); [125I]-Nociceptin): − (“−” indicates less than 50% inhibition at 10 μM) | A8: inhibition of radioligand binding, human neurokinin (NK1) (Human neurokinin (NK1); [125I]-Substance P): + (“+” indicates greater than 50% inhibition at 10 μM) | A11: inhibition of radioligand binding, mouse urotensin (mUR2) (Mouse urotensin (mUR2); [125I]-Urotensin II): − (“−” indicates less than 50% inhibition at 10 μM) | A3: inhibition of radioligand binding, human melanocortin (MC3) (Human Melanocortin (MC3); [125I]-NDP-αMSH): − (“−” indicates less than 50% inhibition at 10 μM) | A6: inhibition of radioligand binding, human melanin-concentrating hormone (MCH1) ([2]; [125I]-S36057): − (“−” indicates less than 50% inhibition at 10 μM) | A7: inhibition of radioligand binding, human μ-opioid (MOP) (Human μ-opioid (MOP); [3H]-Naloxone): − (“−” indicates less than 50% inhibition at 10 μM) | A5: inhibition of radioligand binding, human melanocortin (MC5) (Human melanocortin (MC5); [125I]-NDP-αMSH): + (“+” indicates greater than 50% inhibition at 10 μM) | A4: inhibition of radioligand binding, human melanocortin (MC4) (Human Melanocortin (MC4); [125I]-NDP-αMSH): − (“−” indicates less than 50% inhibition at 10 μM) | A1: inhibition of radioligand binding, human δ-opioid (DOP) (Human δ-opioid (DOP); [3H]-Bremazocine): − (“−” indicates less than 50% inhibition at 10 μM)

COC[C@H]1OC(OCc2ccc(Cl)cc2)[C@H](NC(=O)CCCNC(=N)N)[C@@H](OCc2ccccc2)[C@@H]1O (stereo partly shown) [compound 36]
A9 radioligand binding inhibition ([1]; human NPY-Y1 membranes): − (“−” indicates less than 50% inhibition at 10 μM) | A2 radioligand binding inhibition (Human κ-Opioid (KOP)): − (“−” indicates less than 50% inhibition at 10 μM) | A10 radioligand binding inhibition (Human opioid (ORL1); human ORL1 membranes): − (“−” indicates less than 50% inhibition at 10 μM) | A8 radioligand binding inhibition (Human neurokinin (NK1)): + (“+” indicates greater than 50% inhibition at 10 μM) | A11 radioligand binding inhibition (Mouse urotensin (mUR2)): − (“−” indicates less than 50% inhibition at 10 μM) | A3 radioligand binding inhibition (Human Melanocortin (MC3)): − (“−” indicates less than 50% inhibition at 10 μM) | A6 radioligand binding inhibition [2]: − (“−” indicates less than 50% inhibition at 10 μM) | A7 radioligand binding inhibition (Human μ-opioid (MOP)): + (“+” indicates greater than 50% inhibition at 10 μM) | A5 radioligand binding inhibition (Human melanocortin (MC5)): − (“−” indicates less than 50% inhibition at 10 μM) | A4 radioligand binding inhibition (Human Melanocortin (MC4)): − (“−” indicates less than 50% inhibition at 10 μM) | A1 radioligand binding inhibition (Human δ-opioid (DOP)): − (“−” indicates less than 50% inhibition at 10 μM)

CO[C@H]1[C@H](O)[C@@H](COCc2ccc3ccccc3c2)OC(OCCc2ccccc2)[C@@H]1NC(=O)CCNC(=N)N (stereo partly shown) [compound 114]
A9 radioligand binding, percentage inhibition ([1]; [125I]-PYY): − (“−” indicates less than 50% inhibition at 10 μM) | A2 radioligand binding, percentage inhibition (Human κ-Opioid (KOP); [3H]-Diprenorphine): + (“+” indicates greater than 50% inhibition at 10 μM) | A10 radioligand binding, percentage inhibition (Human opioid (ORL1); [125I]-Nociceptin): − (“−” indicates less than 50% inhibition at 10 μM) | A8 radioligand binding, percentage inhibition (Human neurokinin (NK1); [125I]-Substance P): + (“+” indicates greater than 50% inhibition at 10 μM) | A11 radioligand binding, percentage inhibition (Mouse urotensin (mUR2); [125I]-Urotensin II): − (“−” indicates less than 50% inhibition at 10 μM) | A3 radioligand binding, percentage inhibition (Human Melanocortin (MC3); [125I]-NDP-αMSH): − (“−” indicates less than 50% inhibition at 10 μM) | A6 radioligand binding, percentage inhibition ([2]; [125I]-S36057): − (“−” indicates less than 50% inhibition at 10 μM) | A7 radioligand binding, percentage inhibition (Human μ-opioid (MOP); [3H]-Naloxone): − (“−” indicates less than 50% inhibition at 10 μM) | A5 radioligand binding, percentage inhibition (Human melanocortin (MC5); [125I]-NDP-αMSH): + (“+” indicates greater than 50% inhibition at 10 μM) | A4 radioligand binding, percentage inhibition (Human Melanocortin (MC4); [125I]-NDP-αMSH): + (“+” indicates greater than 50% inhibition at 10 μM) | A1 radioligand binding, percentage inhibition (Human δ-opioid (DOP); [3H]-Bremazocine): − (“−” indicates less than 50% inhibition at 10 μM)

NCCC(=O)N[C@H]1C(OCc2ccc3ccccc3c2)O[C@H](COCc2ccc3ccccc3c2)[C@@H](O)[C@@H]1OCc1ccc2ccccc2c1 (stereo partly shown) [compound 442]
A9: inhibition of radioligand binding ([1]; [125I]-PYY, human NPY-Y1 membranes): − (“−” indicates less than 50% inhibition at 10 μM) | A2: inhibition of radioligand binding (Human κ-Opioid (KOP); [3H]-Diprenorphine, human KOP membranes): − (“−” indicates less than 50% inhibition at 10 μM) | A10: inhibition of radioligand binding (Human opioid (ORL1); [125I]-Nociceptin, human ORL1 membranes): + (“+” indicates greater than 50% inhibition at 10 μM) | A8: inhibition of radioligand binding (Human neurokinin (NK1); [125I]-Substance P, human NK1 membranes): + (“+” indicates greater than 50% inhibition at 10 μM) | A11: inhibition of radioligand binding (Mouse urotensin (mUR2); [125I]-Urotensin II, mouse mUR2 membranes): − (“−” indicates less than 50% inhibition at 10 μM) | A3: inhibition of radioligand binding (Human Melanocortin (MC3); [125I]-NDP-αMSH, human MC3 membranes): + (“+” indicates greater than 50% inhibition at 10 μM) | A6: inhibition of radioligand binding ([2]; [125I]-S36057, human MCH1 membranes): + (“+” indicates greater than 50% inhibition at 10 μM) | A7: inhibition of radioligand binding (Human μ-opioid (MOP); [3H]-Naloxone, human MOP membranes): − (“−” indicates less than 50% inhibition at 10 μM) | A5: inhibition of radioligand binding (Human melanocortin (MC5); [125I]-NDP-αMSH, human MC5 membranes): + (“+” indicates greater than 50% inhibition at 10 μM) | A4: inhibition of radioligand binding (Human Melanocortin (MC4); [125I]-NDP-αMSH, human MC4 membranes): + (“+” indicates greater than 50% inhibition at 10 μM) | A1: inhibition of radioligand binding (Human δ-opioid (DOP); [3H]-Bremazocine, human DOP membranes): − (“−” indicates less than 50% inhibition at 10 μM)
